Reference: patent US6274715A, “Tricyclic erythromycin derivatives” (priority 1997, dated 2001)
In brackets after ≈: the same amount, converted by molar mass.

Key:
Format in all cases: cell-based
[1] = tested on: STREPTOCOCCUS PYOGENES 930; test: In vitro antibacterial activity, MIC, BHI agar dilution; conditions: S. pyogenes 930, unit assumed
ESCHERICHIA COLI H560 = test: as above; conditions: E. coli H560, unit assumed
[2] = tested on: PSEUDOMONAS AERUGINOSA BMH10; test: as above; conditions: P. aeruginosa BMH10, unit assumed
[3] = tested on: STAPHYLOCOCCUS AUREUS ATCC 6538P; test: as above; conditions: S. aureus ATCC 6538P, 35-37° C., 20 to 24 hours, unit assumed
[4] = tested on: PSEUDOMONAS AERUGINOSA 5007; test: as above; conditions: P. aeruginosa 5007, unit assumed
[5] = tested on: STAPHYLOCOCCUS AUREUS CMX 553; test: as above; conditions: S. aureus CMX 553, unit assumed
ESCHERICHIA COLI SS = test: as above; conditions: E. coli SS, unit assumed
[6] = tested on: PSEUDOMONAS AERUGINOSA K799/WT; test: as above; conditions: P. aeruginosa K799/WT, unit assumed
ESCHERICHIA COLI DC-2 = test: as above; conditions: E. coli DC-2, unit assumed
[7] = tested on: PSEUDOMONAS AERUGINOSA DPHD-5263; test: as above; conditions: P. aeruginosa DPHD-5263, unit assumed
PSEUDOMONAS CEPACIA 296I = test: as above; conditions: P. cepacia 296I, unit assumed
[8] = tested on: STAPHYLOCOCCUS AUREUS A-5278; test: as above; conditions: S. aureus A-5278, unit assumed
[9] = tested on: PROVIDENCIA STUARTII CMX 640; conditions: P. stuartii CMX 640; BHI agar; unit assumed
[10] = tested on: STAPHYLOCOCCUS EPIDERMIDIS 3519; conditions: S. epidermidis 3519; BHI agar; unit assumed
[11] = tested on: STREPTOCOCCUS PYOGENES EES61; test: In vitro antibacterial activity, MIC, BHI agar dilution; conditions: S. pyogenes EES61, unit assumed
[12] = tested on: STAPHYLOCOCCUS AUREUS CMX 642A; test: as above; conditions: S. aureus CMX 642A, unit assumed
[13] = tested on: PSEUDOMONAS AERUGINOSA DPHD-2862; test: as above; conditions: P. aeruginosa DPHD-2862, unit assumed
[14] = tested on: STAPHYLOCOCCUS AUREUS NCTC10649M; test: as above; conditions: S. aureus NCTC10649M, unit assumed
[15] = tested on: PSEUDOMONAS AERUGINOSA K799/61; test: as above; conditions: P. aeruginosa K799/61, unit assumed
ESCHERICHIA COLI KNK 437 = conditions: E. coli KNK 437; BHI agar; unit assumed
CANDIDA ALBICANS CCH 442 = test: In vitro antibacterial activity, MIC, BHI agar dilution; conditions: C. albicans CCH 442, unit assumed
[16] = tested on: ENTEROBACTER AEROGENES ATCC 13048; test: as above; conditions: E. aerogenes ATCC 13048, unit assumed
[17] = tested on: STAPHYLOCOCCUS AUREUS 1775; test: as above; conditions: S. aureus 1775, unit assumed
[18] = tested on: STAPHYLOCOCCUS AUREUS A5177; test: as above; conditions: S. aureus A5177, unit assumed
[19] = tested on: KLEBSIELLA PNEUMONIAE ATCC 8045; test: as above; conditions: K. pneumoniae ATCC 8045, unit assumed
[20] = tested on: ACINETOBACTER CALCOACETICUS CMX 669; test: as above; conditions: A. calcoaceticus CMX 669, unit assumed
[21] = tested on: STREPTOCOCCUS BOVIS A-5169; test: as above; conditions: S. bovis A-5169, unit assumed
[22] = tested on: STREPTOCOCCUS PYOGENES PIU 2548; test: as above; conditions: S. pyogenes PIU 2548, unit assumed
STR[…] 508 = test: as above; conditions: S. agalactiae CMX 508, unit assumed
Summary of the method: (§1)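 Twelve successive aqueous dilutions of compound in Brain Heart Infusion agar were inoculated with 1:100 culture dilutions (1:10 for slow growers such as Micrococcus, Streptococcus) by Steers replicator and incubated at 35-37° C for 20 to 24 hours. MIC was the lowest concentration giving no growth, slight haze or sparse colonies versus drug-free control.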

M[…] ATCC 9341 = test: as above; conditions: M. luteus ATCC 9341, unit assumed
Summary of the method: as §1

M[…] ATCC 4698 = test: as above; conditions: M. luteus ATCC 4698, unit assumed
Summary of the method: as §1

EN[…] ATCC 8043 = test: as above; conditions: E. faecium ATCC 8043, unit assumed
Summary of the method: as §1

[23] = tested on: MYCOBACTERIUM SMEGMATIS ATCC 114; test: as above; conditions: M. smegmatis ATCC 114, unit assumed
ESCHERICHIA COLI JUHL = conditions: E. coli JUHL; BHI agar; unit assumed

Row | SMILES | MIC [1] | MIC (ESCHERICHIA COLI H560) | MIC [2] | MIC [3] | MIC [4] | MIC [5] | MIC (ESCHERICHIA COLI SS) | MIC [6] | MIC (ESCHERICHIA COLI DC-2) | MIC [7] | MIC (PSEUDOMONAS CEPACIA 296I) | MIC [8] | MIC [9] | MIC [10] | MIC [11] | MIC [12] | MIC [13] | MIC [14] | MIC [15] | MIC (ESCHERICHIA COLI KNK 437) | further results
1 | CC[C@H]1OC(=O)[C@H](C)C(=O)[C@H](C)[C@@H](O[C@@H]2O[C@H](C)C[C@H](N(C)C)[C@H]2O)[C@](C)(OC)C[C@@H](C)C2=NC[C@H](Cc3ccc(NC(=O)OCc4ccccc4)cc3)N3C(=O)O[C@@]1(C)[C@H]3[C@H]2C [Example 68] | 50 µg/mL (≈ 57 µM) | 50 µg/mL (≈ 57 µM) | > 100 µg/mL | 0.2 µg/mL (≈ 0.228 µM) | > 100 µg/mL | 0.2 µg/mL (≈ 0.228 µM) | 1.56 µg/mL (≈ 1.78 µM) | > 100 µg/mL | 100 µg/mL (≈ 114 µM) | > 100 µg/mL | > 100 µg/mL | > 100 µg/mL | > 100 µg/mL | 0.39 µg/mL (≈ 0.445 µM) | 0.1 µg/mL (≈ 0.114 µM) | 0.2 µg/mL (≈ 0.228 µM) | > 100 µg/mL | 0.2 µg/mL (≈ 0.228 µM) | 3.1 µg/mL (≈ 3.53 µM) | > 100 µg/mL | MIC (CANDIDA ALBICANS CCH 442): > 100 µg/mL; MIC [16]: > 100 µg/mL; MIC [17]: > 100 µg/mL; MIC [18]: 0.2 µg/mL (≈ 0.228 µM); MIC [19]: > 100 µg/mL; MIC [20]: 100 µg/mL (≈ 114 µM); MIC [21]: 0.05 µg/mL (≈ 0.057 µM); MIC [22]: 0.78 µg/mL (≈ 0.889 µM); MIC (STR[…] 508): 0.05 µg/mL (≈ 0.057 µM); MIC (M[…] ATCC 9341): 0.1 µg/mL (≈ 0.114 µM); MIC (M[…] ATCC 4698): 0.39 µg/mL (≈ 0.445 µM); MIC (EN[…] ATCC 8043): 0.2 µg/mL (≈ 0.228 µM); MIC [23]: 3.1 µg/mL (≈ 3.53 µM)
2 | CC[C@H]1OC(=O)[C@H](C)C(=O)[C@H](C)[C@@H](O[C@@H]2O[C@H](C)C[C@H](N(C)C)[C@H]2O)[C@](C)(OC)C[C@@H](C)C2=NC[C@H](COCc3ccc(F)cc3)N3C(=O)O[C@@]1(C)[C@H]3[C@H]2C [Example 71] | 25 µg/mL (≈ 32.2 µM) | 12.5 µg/mL (≈ 16.1 µM) | 50 µg/mL (≈ 64.4 µM) | 0.1 µg/mL (≈ 0.129 µM) | 100 µg/mL (≈ 129 µM) | 0.1 µg/mL (≈ 0.129 µM) | 0.39 µg/mL (≈ 0.503 µM) | 100 µg/mL (≈ 129 µM) | 12.5 µg/mL (≈ 16.1 µM) | > 100 µg/mL | 25 µg/mL (≈ 32.2 µM) | > 100 µg/mL | 100 µg/mL (≈ 129 µM) | 0.1 µg/mL (≈ 0.129 µM) | 0.01 µg/mL (≈ 0.0129 µM) | 0.1 µg/mL (≈ 0.129 µM) | 100 µg/mL (≈ 129 µM) | 0.1 µg/mL (≈ 0.129 µM) | 0.78 µg/mL (≈ 1.01 µM) | 25 µg/mL (≈ 32.2 µM) | MIC (ESCHERICHIA COLI JUHL): 25 µg/mL (≈ 32.2 µM); MIC (CANDIDA ALBICANS CCH 442): > 100 µg/mL; MIC [16]: 50 µg/mL (≈ 64.4 µM); MIC [17]: > 100 µg/mL; MIC [18]: 0.1 µg/mL (≈ 0.129 µM); MIC [20]: 12.5 µg/mL (≈ 16.1 µM); MIC [21]: 0.02 µg/mL (≈ 0.0258 µM); MIC [22]: 0.39 µg/mL (≈ 0.503 µM); MIC (STR[…] 508): 0.01 µg/mL (≈ 0.0129 µM); MIC (M[…] ATCC 9341): 0.01 µg/mL (≈ 0.0129 µM); MIC (M[…] ATCC 4698): 0.1 µg/mL (≈ 0.129 µM); MIC (EN[…] ATCC 8043): 0.05 µg/mL (≈ 0.0644 µM); MIC [23]: 0.2 µg/mL (≈ 0.258 µM)
3 | CC[C@H]1OC(=O)[C@H](C)C(=O)[C@H](C)[C@@H](O[C@@H]2O[C@H](C)C[C@H](N(C)C)[C@H]2O)[C@](C)(OC)C[C@@H](C)C2=NC3COCC3N3C(=O)O[C@@]1(C)[C@H]3[C@H]2C (stereo partly drawn) [Example 108] | > 100 µg/mL | > 100 µg/mL | > 100 µg/mL | 0.39 µg/mL (≈ 0.574 µM) | > 100 µg/mL | 0.78 µg/mL (≈ 1.15 µM) | 0.78 µg/mL (≈ 1.15 µM) | > 100 µg/mL | > 100 µg/mL | > 100 µg/mL | > 100 µg/mL | > 100 µg/mL | > 100 µg/mL | 1.56 µg/mL (≈ 2.29 µM) | 0.1 µg/mL (≈ 0.147 µM) | 0.78 µg/mL (≈ 1.15 µM) | > 100 µg/mL | 0.78 µg/mL (≈ 1.15 µM) | 6.2 µg/mL (≈ 9.12 µM) | > 100 µg/mL | MIC (CANDIDA ALBICANS CCH 442): > 100 µg/mL; MIC [16]: > 100 µg/mL; MIC [17]: > 100 µg/mL; MIC [18]: 0.39 µg/mL (≈ 0.574 µM); MIC [19]: > 100 µg/mL; MIC [20]: 100 µg/mL (≈ 147 µM); MIC [21]: 0.02 µg/mL (≈ 0.0294 µM); MIC [22]: 0.39 µg/mL (≈ 0.574 µM); MIC (STR[…] 508): 0.1 µg/mL (≈ 0.147 µM); MIC (M[…] ATCC 9341): 0.1 µg/mL (≈ 0.147 µM); MIC (M[…] ATCC 4698): 0.78 µg/mL (≈ 1.15 µM); MIC (EN[…] ATCC 8043): 0.2 µg/mL (≈ 0.294 µM); MIC [23]: 12.5 µg/mL (≈ 18.4 µM)
